Legend:
HH = assay: Combination study, ATPLite 72 h, dose matrix (Synergy Score, CI50); format: cell-based; conditions: combination with Compound 1
Experimental: The method is described as follows.
Additive effect is CI=1.0. […] Antagonistic effect is CI>1.0.
The Synergy Score is calculated as: […]

HBL-1 = assay: as above; conditions: combination with Compound 1, 72 h
Experimental: (§1) Cells are thawed from a liquid nitrogen preserved state. Once cells have been expanded and divide at their expected doubling times, screening begins. Cells are seeded in growth media in either black 1536-well or 384-well tissue culture treated plates. Cells are then equilibrated in assay plates via centrifugation and placed in incubators attached to the Dosing Modules at 37° C. for 24 hours before treatment. […] These Tzero (To) plates are read using ultra-sensitive luminescence on Envision plate readers (Perkin Elmer). Treated assay plates are incubated with compound for 72 hours. After 72 hours, plates are developed for endpoint analysis using ATPLite. All data points are collected via automated processes, quality controlled and analyzed using Zalicus software.
(§2) where T is treated cell count and V is untreated (vehicle) cell count (at 72 hours). I ranges from 0% (when T=V) to 100% (when T=0). […] The measure of effect in the experiment can be the inhibition of cellular response relative to the untreated level (vehicle alone). […] The inhibition ranges from 0% at the untreated level to 100% when T=0. Inhibition levels are negative for agents that actually increase levels. Other effect measures, such as an activity ratio r=T/V may be more appropriate for some assays. When activity ratios (e.g, fold increase over stimulated control) are being used, the effect can be measured using an induction 1=ln(T/V). With this definition, all effect expressions are the same as for inhibition.
(§3) Growth Inhibition (GI) is used as a measure of cell viability. […] A GI reading of 100% represents complete growth inhibition—T72 compound-treated and T0 vehicle signals are matched. […] A GI reading of 200% represents complete death of all cells in the culture well. Compounds reaching an activity plateau of GI 200% are considered cytotoxic. GI is calculated by applying the following test and equation:
(§4) Combination analysis data were collected in a 6×6 dose matrix. Synergy is calculated by comparing a combination's response to those of its single compound, against the drug-with-itself dose-additive reference model. Deviations from dose additivity may be assessed visually on an isobologram or numerically with a Combination Index (CI). […] Additive effect is CI=1.0. […] Antagonistic effect is CI>1.0.
(§5) To measure combination effects in excess of Loewe additivity, a scalar measure to characterize the strength of synergistic interaction termed the Synergy Score is devised. The Synergy Score is calculated as:
(§6) The fractional inhibition for each component agent and combination point in the matrix is calculated relative to the median of all vehicle-treated control wells. The Synergy Score equation integrates the experimentally-observed activity volume at each point in the matrix in excess of a model surface numerically derived from the activity of the component agents using the Loewe model for additivity. Additional terms in the Synergy Score equation (above) are used to normalize for various dilution factors used for individual agents and to allow for comparison of synergy scores across an entire experiment. The inclusion of positive inhibition gating or an Idata multiplier removes noise near the zero effect level, and biases results for synergistic interactions at that occur at high activity levels.
(§7) Loewe Volume (Loewe Vol) is used to assess the overall magnitude of the combination interaction in excess of the Loewe additivity model. Loewe Volume is particularly useful when distinguishing synergistic increases in a phenotypic activity (positive Loewe Volume) versus synergistic antagonisms (negative Loewe Volume). […] This model defines additivity as a non-synergistic combination interaction where the combination dose matrix surface should be indistinguishable from either drug crossed with itself. The calculation for Loewe additivity is:

OCI-Ly3 = assay: as above; conditions: combination with Compound 1; OCI-Ly3; 72 h
U-2932 = assay: as above; conditions: combination with Compound 1, 72 h
TMD8 = assay: as above; conditions: combination with Compound 1; TMD8; 72 h
Experimental: as §1, §2, §3, §4
(§8) The isobologram was drawn by identifying the locus of concentrations that correspond to crossing the indicated inhibition level. This is done by finding the crossing point for each single agent concentration in a dose matrix across the concentrations of the other single agent. Practically, each vertical concentration CY is held fixed while a bisection algorithm is used to identify the horizontal concentration CX in combination with that vertical dose that gives the chosen effect level in the response surface Z(CX,CY). These concentrations are then connected by linear interpolation to generate the isobologram display. For synergistic interactions, the isobologram contour fall below the additivity threshold and approaches the origin, and an antagonistic interaction would lie above the additivity threshold. The error bars represent the uncertainty arising from the individual data points used to generate the isobologram. The uncertainty for each crossing point is estimated from the response errors using bisection to find the concentrations where Z−αZ(CX,CY) and Z+σZ(CX,CY) cross Icut, where αZ is the standard deviation of the residual error on the effect scale.
as §5
(§9) The fractional inhibition for each component agent and combination point in the matrix is calculated relative to the median of all vehicle-treated control wells.

OCI-Ly7 = assay: as above; conditions: combination with Compound 1, 72 h
SU-DHL-4-epst = assay: as above; conditions: combination with Compound 1, 72 h
DOHH-2 = assay: as above; conditions: combination with Compound 1, 72 h
Experimental: as §1
The measure of effect in the experiment can be the inhibition of cellular response relative to the untreated level (vehicle alone). […] The inhibition ranges from 0% at the untreated level to 100% when T=0. Inhibition levels are negative for agents that actually increase levels.
as §3, §4, §5, §6, §7

Farage = assay: as above; conditions: combination with Compound 1; Farage; 72 h
Experimental: as §1, §2, §3, §4, §8, §5, §9

SU-DHL-10-epst = assay: as above; conditions: combination with Compound 1, 72 h
RL = assay: as above; conditions: combination with Compound 1, 72 h
Experimental: as §1, §2, §3, §4, §5, §6
(§10) Loewe Volume (Loewe Vol) is used to assess the overall magnitude of the combination interaction in excess of the Loewe additivity model. Loewe Volume is particularly useful when distinguishing synergistic increases in a phenotypic activity (positive Loewe Volume) versus synergistic antagonisms (negative Loewe Volume). […] This model defines additivity as a non-synergistic combination interaction where the combination dose matrix surface should be indistinguishable from either drug crossed with itself.

KARPAS-422 = assay: as above; conditions: combination with Compound 1, 72 h
WSU-NHL = assay: as above; conditions: combination with Compound 1, 72 h
KARPAS-299 = assay: as above; conditions: combination with Compound 1
GRANTA-519 = assay: as above; conditions: combination with Compound 1
Jeko-1 = assay: as above; conditions: combination with Compound 1
Mino = assay: as above; conditions: combination with Compound 1
NCI-H929 = assay: as above; conditions: combination with Compound 1
Experimental: as §1, §2, §3, §4, §5, §6, §10

[1] = as above; conditions: combination with Compound 1; OPM-2
OMP-2 = assay: as above; conditions: combination with Compound 1; OPM-2
RPMI-8226 = assay: as above; conditions: combination with Compound 1

In the case of `NC1(c2ccc(-c3nc4ccn5c(=O)[nH]nc5c4cc3-c3ccccc3)cc2)CCC1` [MK-2206, 8-[4-(1-aminocyclobutyl)phenyl]-9-phenyl-2H-[1,2,4]triazolo[3,4-f][1,6]naphthyridin-3-one], the CI50 growth inhibition (HH) is reported as “S (S=0.01 to <0.5)”, the CI50 inhibition (HH) is reported as “S (S=0.01 to <0.5)” and the “Synergy Score growth inhibition” value (HH) is reported as “A3 (A3=>3)”. The “Synergy Score inhibition” value (HH) was “A2 (A2=1 to <3)”, the CI50 growth inhibition (HBL-1) was “T (T=0.5 to <0.7)” and the CI50 inhibition (HBL-1) was “W (W=≥1)”. The “Synergy Score growth inhibition” value (HBL-1) was “A2 (A2=1 to <3)”, the “Synergy Score inhibition” value (HBL-1) was “A1 (A1=0.0001 to <1)” and the CI50 growth inhibition (OCI-Ly3) was “S (S=0.01 to <0.5)”. The CI50 inhibition (OCI-Ly3) was “W (W=≥1)”, the “Synergy Score growth inhibition” value (OCI-Ly3) was “A2 (A2=1 to <3)” and the “Synergy Score inhibition” value (OCI-Ly3) was “A1 (A1=0.0001 to <1)”. The CI50 growth inhibition (U-2932) was “U (U=0.7 to <1)”, the CI50 inhibition (U-2932) was “U (U=0.7 to <1)” and the “Synergy Score growth inhibition” value (U-2932) was “A1 (A1=0.0001 to <1)”. For the same compound, the “Synergy Score inhibition” value (U-2932) was “A1 (A1=0.0001 to <1)”, the CI50 growth inhibition (TMD8) was “S (S=0.01 to <0.5)” and the CI50 inhibition (TMD8) was “S (S=0.01 to <0.5)”. For the same compound, the “Synergy Score growth inhibition” value (TMD8) was “A3 (A3=>3)”, the “Synergy Score inhibition” value (TMD8) was “A3 (A3=>3)” and the CI50 growth inhibition (OCI-Ly7) was “U (U=0.7 to <1)”. For the same compound, the CI50 inhibition (OCI-Ly7) was “W (W=≥1)”, the “Synergy Score growth inhibition” value (OCI-Ly7) was “A1 (A1=0.0001 to <1)” and the “Synergy Score inhibition” value (OCI-Ly7) was “A1 (A1=0.0001 to <1)”. For the same compound, the CI50 growth inhibition (SU-DHL-4-epst) was “S (S=0.01 to <0.5)”, the CI50 inhibition (SU-DHL-4-epst) was “S (S=0.01 to <0.5)” and the “Synergy Score growth inhibition” value (SU-DHL-4-epst) was “A3 (A3=>3)”. For the same compound, the “Synergy Score inhibition” value (SU-DHL-4-epst) was “A3 (A3=>3)”, the CI50 growth inhibition (DOHH-2) was “S (S=0.01 to <0.5)” and the CI50 inhibition (DOHH-2) was “S (S=0.01 to <0.5)”. The “Synergy Score growth inhibition” value (DOHH-2) was “A3 (A3=>3)”, the “Synergy Score inhibition” value (DOHH-2) was “A3 (A3=>3)” and the CI50 growth inhibition (Farage) was “S (S=0.01 to <0.5)”. The CI50 inhibition (Farage) was “S (S=0.01 to <0.5)”, the “Synergy Score growth inhibition” value (Farage) was “A3 (A3=>3)” and the “Synergy Score inhibition” value (Farage) was “A3 (A3=>3)”. The CI50 growth inhibition (SU-DHL-10-epst) was “S (S=0.01 to <0.5)”, the CI50 inhibition (SU-DHL-10-epst) was “S (S=0.01 to <0.5)” and the “Synergy Score growth inhibition” value (SU-DHL-10-epst) was “A3 (A3=>3)”. The “Synergy Score inhibition” value (SU-DHL-10-epst) was “A3 (A3=>3)”, the CI50 growth inhibition (RL) was “S (S=0.01 to <0.5)” and the CI50 inhibition (RL) was “S (S=0.01 to <0.5)”. For the same compound, the “Synergy Score growth inhibition” value (RL) was “A3 (A3=>3)”, the “Synergy Score inhibition” value (RL) was “A3 (A3=>3)” and the CI50 growth inhibition (KARPAS-422) was “T (T=0.5 to <0.7)”. For the same compound, the CI50 inhibition (KARPAS-422) was “S (S=0.01 to <0.5)”, the “Synergy Score growth inhibition” value (KARPAS-422) was “A2 (A2=1 to <3)” and the “Synergy Score inhibition” value (KARPAS-422) was “A2 (A2=1 to <3)”. The CI50 growth inhibition (WSU-NHL) was “S (S=0.01 to <0.5)”, the CI50 inhibition (WSU-NHL) was “S (S=0.01 to <0.5)” and the “Synergy Score growth inhibition” value (WSU-NHL) was “A3 (A3=>3)”. The “Synergy Score inhibition” value (WSU-NHL) was “A3 (A3=>3)”, the “Synergy Score growth inhibition” value (KARPAS-299) was “A1 (A1=0.0001 to <1)” and the “Synergy Score inhibition” value (KARPAS-299) was “A1 (A1=0.0001 to <1)”. The CI50 growth inhibition (GRANTA-519) was “S (S=0.01 to <0.5)”, the “Synergy Score growth inhibition” value (GRANTA-519) was “A1 (A1=0.0001 to <1)” and the “Synergy Score inhibition” value (GRANTA-519) was “A1 (A1=0.0001 to <1)”. The CI50 growth inhibition (Jeko-1) was “S (S=0.01 to <0.5)”, the CI50 inhibition (Jeko-1) was “S (S=0.01 to <0.5)” and the “Synergy Score growth inhibition” value (Jeko-1) was “A2 (A2=1 to <3)”. For the same compound, the “Synergy Score inhibition” value (Jeko-1) was “A2 (A2=1 to <3)”, the CI50 growth inhibition (Mino) was “W (W=≥1)” and the CI50 inhibition (Mino) was “U (U=0.7 to <1)”. The “Synergy Score growth inhibition” value (Mino) was “A1 (A1=0.0001 to <1)”, the “Synergy Score inhibition” value (Mino) was “A1 (A1=0.0001 to <1)” and the CI50 growth inhibition (NCI-H929) was “T (T=0.5 to <0.7)”. For the same compound, the CI50 inhibition (NCI-H929) was “U (U=0.7 to <1)”, the “Synergy Score growth inhibition” value (NCI-H929) was “A3 (A3=>3)” and the “Synergy Score inhibition” value (NCI-H929) was “A2 (A2=1 to <3)”. For the same compound, the CI50 growth inhibition [1] was “S (S=0.01 to <0.5)”, the CI50 inhibition (OMP-2) was “U (U=0.7 to <1)” and the “Synergy Score growth inhibition” value (OMP-2) was “A3 (A3=>3)”. The “Synergy Score inhibition” value (OMP-2) was “A2 (A2=1 to <3)”, the CI50 growth inhibition (RPMI-8226) was “U (U=0.7 to <1)” and the CI50 inhibition (RPMI-8226) was “U (U=0.7 to <1)”. The “Synergy Score growth inhibition” value (RPMI-8226) was “A2 (A2=1 to <3)” and the “Synergy Score inhibition” value (RPMI-8226) was “A1 (A1=0.0001 to <1)”.

With `Nc1ncn([C@@H]2O[C@H](CO)[C@@H](O)[C@H]2O)c(=O)n1` [Azacitidine] the CI50 growth inhibition (HH) was “S (S=0.01 to <0.5)”, the CI50 inhibition (HH) was “S (S=0.01 to <0.5)” and the CI50 growth inhibition (HBL-1) was “S (S=0.01 to <0.5)”. For the same compound, the CI50 inhibition (HBL-1) was “W (W=≥1)”, the CI50 growth inhibition (OCI-Ly3) was “S (S=0.01 to <0.5)” and the CI50 growth inhibition (U-2932) was “S (S=0.01 to <0.5)”. For the same compound, the CI50 inhibition (U-2932) was “W (W=≥1)”, the CI50 growth inhibition (TMD8) was “U (U=0.7 to <1)” and the CI50 inhibition (TMD8) was “U (U=0.7 to <1)”. For the same compound, the CI50 growth inhibition (OCI-Ly7) was “T (T=0.5 to <0.7)”, the CI50 inhibition (OCI-Ly7) was “T (T=0.5 to <0.7)” and the CI50 growth inhibition (SU-DHL-4-epst) was “S (S=0.01 to <0.5)”. The CI50 inhibition (SU-DHL-4-epst) was “S (S=0.01 to <0.5)”, the CI50 growth inhibition (DOHH-2) was “U (U=0.7 to <1)” and the CI50 inhibition (DOHH-2) was “U (U=0.7 to <1)”. For the same compound, the CI50 growth inhibition (Farage) was “S (S=0.01 to <0.5)”, the CI50 inhibition (Farage) was “S (S=0.01 to <0.5)” and the CI50 growth inhibition (SU-DHL-10-epst) was “S (S=0.01 to <0.5)”. The CI50 inhibition (SU-DHL-10-epst) was “S (S=0.01 to <0.5)”, the CI50 growth inhibition (RL) was “T (T=0.5 to <0.7)” and the CI50 inhibition (RL) was “U (U=0.7 to <1)”. For the same compound, the CI50 growth inhibition (KARPAS-422) was “T (T=0.5 to <0.7)”, the CI50 inhibition (KARPAS-422) was “U (U=0.7 to <1)” and the CI50 growth inhibition (WSU-NHL) was “T (T=0.5 to <0.7)”. For the same compound, the CI50 inhibition (WSU-NHL) was “S (S=0.01 to <0.5)”, the CI50 growth inhibition (KARPAS-299) was “W (W=≥1)” and the CI50 inhibition (KARPAS-299) was “W (W=≥1)”. For the same compound, the CI50 growth inhibition (GRANTA-519) was “U (U=0.7 to <1)”, the CI50 growth inhibition (Jeko-1) was “S (S=0.01 to <0.5)” and the CI50 inhibition (Jeko-1) was “T (T=0.5 to <0.7)”. The CI50 growth inhibition (Mino) was “S (S=0.01 to <0.5)”, the CI50 inhibition (Mino) was “S (S=0.01 to <0.5)” and the CI50 growth inhibition (NCI-H929) was “U (U=0.7 to <1)”. For the same compound, the CI50 inhibition (NCI-H929) was “U (U=0.7 to <1)”, the CI50 growth inhibition [1] was “S (S=0.01 to <0.5)” and the CI50 inhibition (OMP-2) was “W (W=≥1)”. The CI50 growth inhibition (RPMI-8226) was “T (T=0.5 to <0.7)” and the CI50 inhibition (RPMI-8226) was “W (W=≥1)”.

— patent US20240325398A1, “COMBINATION THERAPIES” (Infinity Pharmaceuticals, Inc., priority 2014, published 2024)
